For the test, the target named is T1, ACAT in M.phi. (acyl-CoA: cholesterol acyl transferase) (Mus musculus, UniProt Q61263).
T1 construct: endogenous in cells; host or cells: primary adherent peritoneal macrophages from unstimulated female DDY mice
T1 sequence (Q61263 1-540): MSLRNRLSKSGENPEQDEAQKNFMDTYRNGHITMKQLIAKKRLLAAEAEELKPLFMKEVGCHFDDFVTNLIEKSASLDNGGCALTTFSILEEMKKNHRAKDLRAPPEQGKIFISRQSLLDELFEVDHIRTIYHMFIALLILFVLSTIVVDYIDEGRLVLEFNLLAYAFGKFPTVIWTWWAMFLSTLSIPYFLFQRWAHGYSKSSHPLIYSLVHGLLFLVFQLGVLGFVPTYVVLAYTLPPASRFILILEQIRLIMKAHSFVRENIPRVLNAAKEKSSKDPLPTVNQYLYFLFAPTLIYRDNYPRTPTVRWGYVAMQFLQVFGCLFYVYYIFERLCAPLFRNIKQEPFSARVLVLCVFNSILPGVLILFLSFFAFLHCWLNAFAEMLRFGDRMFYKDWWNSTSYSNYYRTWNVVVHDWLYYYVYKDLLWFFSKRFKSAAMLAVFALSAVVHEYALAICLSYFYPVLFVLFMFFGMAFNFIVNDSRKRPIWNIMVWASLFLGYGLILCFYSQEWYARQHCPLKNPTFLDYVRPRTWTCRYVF
Put plainly: Inhibition of ACAT in mouse macrophages (M.phi.), cholesterol [14C]oleate formation. The note with it: mouse peritoneal macrophages, beta-VLDL, 37° C., 3 hours. Also noted: dose or concentration left out as unconfirmed. Format: cell-based. As to the method:
Blood was obtained [using the anticoagulant ethylene diamine tetraacetic acid (5 mM)] from Japanese White rabbits which had been fed a 2% w/w cholesterol diet for 2 weeks and then fasted overnight prior to removing the blood. β-VLDL (d<1.006 g/ml) was isolated by ultracentrifugation from the plasma according to the method of Hatch and Lees [Hatch, F. T. and Lees, R. S., Adv. Lipid Res., 6, 1-68 (1968)] and dialyzed against 10 mM of a sodium phosphate buffer (pH 7.4) containing 150 mM sodium chloride at 4° C.
Peritoneal cells were harvested from unstimulated female DDY mice (body weight 20-30 g) in phosphate buffer saline (PBS) as described by Edelson and Cohn [Edelson, P. J. and Cohn, Z. A., 1976, IN VITRO Methods in Cell-Mediated and Tumor Immunity, eds, Bloon, B. R. and DAvid, J. R., (Academic, New York), 333-340.]. The fluid from the mice was pooled and the cells were collected by centrifugation at 400× g, for 10 minutes at 4° C., and washed once with PBS. The cells were resuspended in Dulbecco's modified Eagle's medium (DMEM) containing 10% (vol/vol) fetal calf serum (FCS), penicillin (100 units/ml), and streptomycin (100 μg/ml) at a final concentration of 3×10^6 cells per ml. Aliquots (1 ml) of this cell suspension were dispersed onto plastic Petri dishes (35×10 mm) and then incubated in a CO2 incubator (5% CO2 /95% air) at 37° C. for 2 hours. Each dish was washed twice with PBS without serum to remove nonadherent cells. The cells were washed twice with 2 ml of PBS and used for the experiment.
Inhibition of ACAT in M.phi. was determined according to the method described by Brown et al. [Brown, M. S., Goldstein J. L., Krieger, M., Ho, Y. K. and Anderson, R. G. W. (1979) J. Cell Biol., 82, 597-613.]. Cholesterol reacylation was initiated by adding β-VLDL (final concentration 50 μg/ml cholesterol), [^14 C]oleate-albumin complex (final concentrations: 0.2 mM oleate and 0.6 mg/ml albumin) and a test compound dissolved in ethanol into the M.phi. monolayer, and the preparation was incubated at 37° C. for 3 hours in a CO2 incubator. Cells were washed three times with PBS and cellular lipid was extracted with 1 ml hexane/isopropanol (3:2, vol/vol). A lipid extract was evaporated in a stream of nitrogen. Cholesterol [^14 C]oleated was seperated by thin layer chromatography through silica gel using a 85:15:1 by volume mixture of hexane, diethyl ether and acetic acid as developing solvents. The ACAT activity in M.phi. was determined by measuring the radioactivity and an inhibition rate (%) was calculated by comparing a control activity with those of the test compound at given concentrations.
As for `CC(C)c1cccc(C(C)C)c1NC(=O)CC1c2ccccc2Oc2ccccc21` [Compound A, reference compound], the inhibition (commonly the drop in the measured response relative to a control, in per cent) came to 51%. `CC(C)(C)c1ccc(CCC(=O)CC2CCCCC2)cc1NC(=O)CC1c2ccccc2Oc2ccccc21` [Example 13, N-[2-t-Butyl-5-(4-cyclohexyl-3-oxobutyl)phenyl]-2-(9H-xanthen-9-yl)acetamide] yielded an inhibition of 80%. The same measure for `CC(C)(C)c1ccc(CCC(O)CCC2CCCCC2)cc1NC(=O)CC1c2ccccc2Oc2ccccc21` (centres unmarked) [Example 26, N-[2-t-Butyl-5-(5-cyclohexyl-3-hydroxypentyl)phenyl]-2-(9H-xanthen-9-yl)acetamide]: 77%. `CC(C)(C)c1ccc(CCC(O)CCCCC2CCCCC2)cc1NC(=O)CC1c2ccccc2Oc2ccccc21` (centres unmarked) [Example 44, N-[2-t-Butyl-5-(7-cyclohexyl-3-hydroxyheptyl)phenyl]-2-(9H-xanthen-9-yl)acetamide]: the inhibition is 89%.

For `CC(C)(C)c1ccc(CCC(O)C2CCCCCC2)cc1NC(=O)CC1c2ccccc2Oc2ccccc21` (centres unmarked) [Example 98, N-[2-t-Butyl-5-(3-cycloheptyl-3-hydroxypropyl)phenyl]-2-(9H-xanthen-9-yl)acetamide], the inhibition was found to be 81%. To `CC(C)c1cccc(CCC(O)CCCC2CCCCC2)c1NC(=O)CC1c2ccccc2Oc2ccccc21` (centres unmarked) [Example 125, N-[2-Isopropyl-6-(6-cyclohexyl-3-hydroxyhexyl)phenyl]-2-(9H-xanthen-9-yl)acetamide] belongs 85%. `CC(C)(C)c1ccc(CCC(O)CCOC2CCCCC2)cc1NC(=O)CC1c2ccccc2Oc2ccccc21` (centres unmarked) [Example 217, N-[2-t-Butyl-5-(5-cyclohexyloxy-3-hydroxypentyl)phenyl]-2-(9H-xanthen-9-yl)acetamide] showed an inhibition of 74%. The same measure for `CC(C)(C)c1ccc(CCC(O)COCCC2CCCCC2)cc1NC(=O)CC1c2ccccc2Oc2ccccc21` (centres unmarked) [Example 219, N-{2-t-Butyl-5-[4-(2-cyclohexylethoxy)-3-hydroxybutyl]phenyl}-2-(9H-xanthen-9-yl)acetamide]: 86%.

Values taken from patent US5614550A, “Amide and urea derivatives having anti-hypercholesteremic activity, their preparation and their therapeutic uses” (Sankyo Company, Limited, priority 1993, dated 1997).
